This is an account of results in patent publication US20040171086A1, “Selective modulation of TLR-mediated biological activity” (3M Innovative Properties Company, priority 2003, published 2004).

The target of the test is T1, TLR6 (Homo sapiens, UniProt Q9Y2C9).
T1 construct: expressed in transfected cells; host or cells: Namalwa (ATCC CRL-1432), pCI-TLR6 vector, G418 selected
T1 sequence (Q9Y2C9 32-796): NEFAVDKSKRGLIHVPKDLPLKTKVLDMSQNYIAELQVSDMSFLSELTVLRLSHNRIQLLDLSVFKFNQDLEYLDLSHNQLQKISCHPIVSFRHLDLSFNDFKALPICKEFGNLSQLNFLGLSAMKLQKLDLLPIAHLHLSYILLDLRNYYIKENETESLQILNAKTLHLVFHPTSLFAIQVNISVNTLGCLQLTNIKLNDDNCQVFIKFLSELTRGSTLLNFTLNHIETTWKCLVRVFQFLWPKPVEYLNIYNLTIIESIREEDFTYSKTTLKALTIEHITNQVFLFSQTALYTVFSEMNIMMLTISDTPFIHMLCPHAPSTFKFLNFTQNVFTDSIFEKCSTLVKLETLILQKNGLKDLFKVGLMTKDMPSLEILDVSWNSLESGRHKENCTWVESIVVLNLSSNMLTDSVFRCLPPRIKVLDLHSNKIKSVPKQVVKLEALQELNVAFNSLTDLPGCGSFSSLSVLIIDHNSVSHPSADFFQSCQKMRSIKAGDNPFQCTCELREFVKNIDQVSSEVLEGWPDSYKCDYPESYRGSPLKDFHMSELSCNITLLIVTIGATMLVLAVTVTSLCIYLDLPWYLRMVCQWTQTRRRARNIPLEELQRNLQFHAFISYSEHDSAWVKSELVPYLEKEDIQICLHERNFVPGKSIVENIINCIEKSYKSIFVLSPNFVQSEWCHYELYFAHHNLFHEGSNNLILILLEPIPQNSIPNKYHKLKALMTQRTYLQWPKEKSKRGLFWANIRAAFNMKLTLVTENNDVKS
The experiment in a line: IFN-α1-luciferase reporter assay in genetically modified Namalwa cells, TLR6. It counts as cell-based. Conditions: 10 μM IRM, 18 hours. As to the method:
Results are shown in Table 6 and are expressed as fold induction of IFN-α1 —induced luciferase signal, again with respect to a vehicle control.
The assay identified TLR6-selective compounds (i.e., compounds that modulate TLR6-mediated activity, but not TLR7-mediated activity), TLR7-selective compounds (compounds that modulate TLR7-mediated activity, but not TLR6-mediated activity), and compounds that modulate cellular activity through both TLR6 and TLR7.
Unless otherwise indicated, all incubations were performed at 37° C. with 5% CO2 at 98% humidity.
Culture medium was prepared from complete RPMI 1640 medium (BioSource International, Inc., Camarillo, Calif.). Fetal bovine serum (Atlas Biologicals, Inc., Ft. Collins, Colo.) was added to a final concentration of 7.5% (vol/vol); L-glutamine (BioSource International, Inc.) was added to 5 mM; and sodium pyruvate (BioSource International, Inc.) was added to 1 mM.
Namalwa cells were grown by incubation in culture medium overnight. Cells were harvested by centrifugation in a tabletop centrifuge (1200 RPM for 5 minutes), and then resuspended in phosphate buffered sucrose to a concentration of 1.3×10^7 cells/mL.
For each transfection, a 750 μL aliquot of the cell suspension was placed in an electroporation cuvette with 4 mm gaps. 10 μg of the pIFN-α1-luc vector and 10 μg of the pCI-TLR6 vector were added to the electroporation cuvette. The cell and vector mixtures were incubated at room temperature for 5 minutes. The cells were electroporated using a BioRad Gene Pulser (BioRad Laboratories, Hercules, Calif.) set to at 500 μF capacitance and […], then incubated at room temperature for 5 minutes.
The electroporated cells were suspended in 10 mLs of culture medium and incubated overnight. Dead cells and debris were removed after 24 hours using a MACS Dead Cell Removal kit (Miltenyi Biotec, Auburn, Calif.). Cells were resuspended in 10 mL of culture medium and incubated for an additional 24 hours.
Transfected cells were selected by adding G418 (Promega Corp., Madison, Wis.) to a final concentration of 1 mg/mL and incubating the cells for seven days.
The selected transfected cells were counted and resuspended to a concentration of 1×10^6 cell per mL in culture medium. 100 μl aliquots of cells were placed in the wells of a white-walled, white-bottomed 96-well plate (Corning, Inc., Corning, N.Y.). 1.0 μL of an IRM compound from Table 1 (prepared at 1 mM in 100% DMSO) was added to some cell aliquots so that the final concentration of IRM compound was 10 μM. As a positive control, some cell aliquots were incubated with Sendai virus instead of IRM compound. As a negative control, some cell aliquots were incubated with DMSO without IRM compound. In all cases, the cells were incubated for 18 hours.
The plates were equilibrated to room temperature before one volume of reconstituted LucLight Plus (Packard Instruments, Meriden, Conn.) was added to each aliquot of cells. Each well of the plate was read on an LJL Analyst (LJL Biosystems, Inc., Sunnyvale, Calif.) set with a 5 minute dark adapt. Results are shown in Table 6 and are expressed as fold increase of the IFN-αl—induced luciferase signal compared to a DMSO control.
Take `CCOCc1nc2c(N)nc3ccccc3c2n1CC(C)C` [IRM1, 2-(ethoxymethyl)-1-(2-methylpropyl)-1H-imidazo[4,5-c]quinolin-4-amine]: the “TLR6: fold increase of the IFN-α1-induced luciferase signal compared to a DMSO control” value (“TLR6: fold increase” for short) was found to be 7.93 fold increase. As for `COCCc1nc2c(N)nc3ccccc3c2n1CCOCCN(C)C(=O)C1CCCCC1` [IRM3, N-(2-{2-[4-amino-2-(2-methoxyethyl)-1H-imidazo[4,5-c]quinolin-1-yl]ethoxy}ethyl)-N-methylcyclohexanecarboxamide], the figure is 10.24 fold increase; as for `CCCCc1nc2c(N)nc3ccccc3c2n1CCCCCS(C)(=O)=O` [IRM6, 2-butyl-1-[5-(methylsulfonyl)pentyl]-1H-imidazo[4,5-c]quinolin-4-amine], 13.61 fold increase; as for `CCc1nc2c(N)nc3ccccc3c2n1CCCCNC(=O)C1CCCCC1` [IRM8, N-[4-(4-amino-2-ethyl-1H-imidazo[4,5-c]quinolin-1-yl)butyl]cyclohexanecarboxamide], 12.49 fold increase. Regarding `CCc1nc2c(N)nc3ccccc3c2n1CCCCSc1cc(Cl)cc(Cl)c1` [IRM14, 1-{4-[(3,5-dichlorophenyl)thio]butyl}-2-ethyl-1H-imidazo[4,5-c]quinolin-4-amine], the “TLR6: fold increase” value worked out at 2.73 fold increase. Regarding `CCOCc1nc2c(N)nc3c(c2n1CC(C)(C)O)CCCC3` [IRM16, 4-amino-2-ethoxymethyl-α,α-dimethyl-6,7,8,9-tetrahydro-1H-imidazo[4,5-c]quinoline-1-ethanol], the “TLR6: fold increase” value is 12.95 fold increase. As to `COCCc1nc2c(N)nc3ccccc3c2n1CCOCCNC(=O)Nc1ccccc1` [IRM19, N-(2-{2-[4-amino-2-(2-methoxyethyl)-1H-imidazo[4,5-c]quinolin-1-yl)ethoxy}ethyl)-N′-phenylurea], the “TLR6: fold increase” value is given as 12.60 fold increase. Take `CCC(C)NC(=S)NCCn1c(CCOC)nc2c(N)nc3ccccc3c21` (stereo not drawn) [IRM21, N-{2-[4-amino-2-(2-methoxyethyl)-1H-imidazo[4,5-c]quinolin-1-yl]ethyl}-N′-sec-butylthiourea]: the “TLR6: fold increase” value is reported as 17.98 fold increase. Regarding `COCCc1nc2c(N)nc3c(c2n1CC(C)(C)NS(C)(=O)=O)CCCC3` [IRM22, N-{2-[4-amino-2-(2-methoxyethyl)-6,7,8,9-tetrahydro-1H-imidazo[4,5-c]quinolin-1-yl]-1,1-dimethylethyl}methanesulfonamide], the “TLR6: fold increase” value is on record as 16.25 fold increase.
